Assay results reported in the NIST ThermoML archive (doi:10.1021/je300557g).

Experiment: xn = mol fraction of the nth substance listed
Details: 101 kPa, Liquid; for mass density: Vibrating tube method

CCCC[n+]1ccc(C)cc1.F[B-](F)(F)F [1-butyl-4-methylpyridinium tetrafluoroborate] + CCO
Details | kinematic viscosity, 293.15 K [m2/s] | kinematic viscosity, 303.15 K [m2/s] | kinematic viscosity, 313.15 K [m2/s] | kinematic viscosity, 323.15 K [m2/s] | mass density, 293.15 K [kg/m3] | mass density, 303.15 K [kg/m3] | mass density, 313.15 K [kg/m3] | mass density, 323.15 K [kg/m3]
x1 = 0.0481 | 1.95e-06 | 1.61e-06 | 1.34e-06 | 1.14e-06 | 852 | 843.78 | 835.55 | 827.17
x1 = 0.0952 | 2.57e-06 | 2.07e-06 | 1.69e-06 | 1.41e-06 | 900.2 | 892.25 | 884.1 | 875.8
x1 = 0.1896 | 4.08e-06 | 3.17e-06 | 2.53e-06 | 2.08e-06 | 972.12 | 964.56 | 956.53 | 948.48
x1 = 0.2856 | 6.35e-06 | 4.76e-06 | 3.75e-06 | 3.03e-06 | 1024.13 | 1016.72 | 1008.96 | 1001.26
x1 = 0.3839 | 9.91e-06 | 7.25e-06 | 5.54e-06 | 4.4e-06 | 1063.87 | 1056.57 | 1049.08 | 1041.7
x1 = 0.5297 | 1.96e-05 | 1.44e-05 | 1.05e-05 | 7.4e-06 | 1107.23 | 1100.11 | 1092.88 | 1085.83
x1 = 0.5858 | 2.57e-05 | 1.76e-05 | 1.33e-05 | 9.33e-06 | 1120.51 | 1113.47 | 1106.29 | 1099.32
x1 = 0.6862 | 4e-05 | 2.78e-05 | 1.96e-05 | 1.36e-05 | 1140.91 | 1133.97 | 1126.84 | 1119.98
x1 = 0.7889 | 7.27e-05 | 4.37e-05 | 3.05e-05 | 2.08e-05 | 1158.26 | 1151.41 | 1144.3 | 1137.51
x1 = 0.8418 | 9.79e-05 | 5.71e-05 | 3.87e-05 | 2.59e-05 | 1166.08 | 1159.26 | 1152.16 | 1145.41
x1 = 0.8942 | 0.000132 | 7.41e-05 | 4.81e-05 | 3.15e-05 | 1173.2 | 1166.4 | 1159.32 | 1152.61
x1 = 0.946 | 0.000177 | 9.52e-05 | 5.94e-05 | 3.79e-05 | 1179.69 | 1172.89 | 1165.84 | 1159.18

CCCC[n+]1ccc(C)cc1.F[B-](F)(F)F [1-butyl-4-methylpyridinium tetrafluoroborate] + CO
Details | kinematic viscosity, 293.15 K [m2/s] | kinematic viscosity, 303.15 K [m2/s] | kinematic viscosity, 313.15 K [m2/s] | kinematic viscosity, 323.15 K [m2/s] | mass density, 293.15 K [kg/m3] | mass density, 303.15 K [kg/m3] | mass density, 313.15 K [kg/m3] | mass density, 323.15 K [kg/m3]
x1 = 0.0477 | 1.02e-06 | 8.83e-07 | 7.78e-07 | 6.88e-07 | 876.71 | 867.94 | 858.74 | 849.6
x1 = 0.0958 | 1.42e-06 | 1.2e-06 | 1.02e-06 | 8.92e-07 | 936.07 | 927.56 | 918.89 | 910.02
x1 = 0.2055 | 2.83e-06 | 2.29e-06 | 1.91e-06 | 1.62e-06 | 1021.53 | 1013.48 | 1005.4 | 997.15
x1 = 0.2889 | 4.57e-06 | 3.6e-06 | 2.92e-06 | 2.44e-06 | 1062.26 | 1054.51 | 1046.65 | 1038.82
x1 = 0.3846 | 7.5e-06 | 5.73e-06 | 4.53e-06 | 3.7e-06 | 1095.45 | 1087.98 | 1080.32 | 1072.88
x1 = 0.4866 | 1.31e-05 | 9.56e-06 | 7.3e-06 | 5.78e-06 | 1121.16 | 1113.92 | 1106.46 | 1099.31
x1 = 0.589 | 2.12e-05 | 1.58e-05 | 1.15e-05 | 8.6e-06 | 1140.6 | 1133.51 | 1126.23 | 1119.29
x1 = 0.7073 | 3.61e-05 | 2.59e-05 | 1.9e-05 | 1.3e-05 | 1157.8 | 1150.84 | 1143.72 | 1136.94
x1 = 0.7963 | 6.42e-05 | 4.11e-05 | 2.8e-05 | 1.93e-05 | 1168.12 | 1161.22 | 1154.18 | 1147.48
x1 = 0.8459 | 8.43e-05 | 5.16e-05 | 3.41e-05 | 2.29e-05 | 1173.12 | 1166.24 | 1159.23 | 1152.56
x1 = 0.8947 | 0.00012 | 6.92e-05 | 4.41e-05 | 2.85e-05 | 1177.58 | 1170.73 | 1163.73 | 1157.09
x1 = 0.9465 | 0.000168 | 9.14e-05 | 5.59e-05 | 3.56e-05 | 1181.89 | 1175.06 | 1168.07 | 1161.45
